Here are results for four molecules from patent publication US20100086520A1, “Compositions, Kits and Uses For Protecting The Skin Against Pathogenic Microorganisms” (OrganoBalance GmbH, priority 2006, published 2010).

Bridge positions count the residues as written; N and C are the ends. Square brackets hold non-standard residues; d marks the D form. Peptide text beside a SMILES is read from it. * marks the point of attachment. Ileψ(thiazoline)Cys = CC[C@H](C)[C@H](N)C1=N[C@H](C(=O)*)CS1; dOrn = NCCC[C@@H](N)C(=O)O

The subject of data set [1] is Staphylococcus aureus (DSM346). Description: in-vitro-hole plate assay, growth inhibition of S. aureus in comparison to bacitracin and erythromycin (Example 12). The format is cell-based. The settings on record: BHI agar, pre-cut holes; antibiotics at different concentrations, defined numbers of Lactobacillus cells; FIG. 10A/10B. An excerpt: The degree of growth inhibition of the microorganism(s) of the transient pathogenic skin micro flora in comparison to the inhibition of growth of at least one such microorganism after the use of an antibiotic can preferably be observed in vitro, more preferably in an assay in which a microorganism according to aspect (ii) of the invention, as described herein above, is contacted with one or more microorganisms of the transient pathogenic skin micro flora and the growth of the(se) microorganism(s) of the transient pathogenic skin micro flora is determined. Most preferably, the comparison of growth inhibition can be determined in an “in vitro hole plate assay” as described in the Examples and mentioned herein above. […]
This effect has been compared to commercial antibiotic cream preparations of bacitracin and erythromycin. […] The diameter of the inhibition zones has been measured and the area of inhibition has been calculated thereof. […]

Another data set relates to resident flora. The settings on record: infants, after treatment with the antibiotic; cited from earlier work.
The test system of a further data set is Candida albicans. To be noted: in vivo; cited from earlier work.

On to `CC[C@H]1OC(=O)[C@H](C)[C@@H](O[C@H]2C[C@@](C)(OC)[C@@H](O)[C@H](C)O2)[C@H](C)[C@@H](O[C@@H]2O[C@H](C)C[C@H](N(C)C)[C@H]2O)[C@](C)(O)C[C@@H](C)C(=O)[C@H](C)[C@@H](O)[C@]1(C)O` [erythromycin], for which the “growth inhibition of the indicator strain S. aureus (inhibition zone, area of inhibition)” value in data set [1] is “growth inhibition of the indictator strain S. aureus has been observed”.

With `CC1(C)S[C@@H]2[C@H](NC(=O)[C@H](N)c3ccc(O)cc3)C(=O)N2[C@H]1C(=O)O` [amoxicillin], the “repression of the resident flora” value with resident flora was “about 50%”. Further, the “increase of the pathogenic yeast Candida albicans” value in the data set with Candida albicans is given as “more than a fourteen-fold increase”. In the case of “Lactobacillus delbrückii ssp. delbrückii OB-LB-Sa3”, in data set [1], the “growth inhibition of the indicator strain S. aureus (inhibition zone, area of inhibition)” value was “growth inhibition of S. aureus”. Still for that read-out and setting: under `CC[C@H](C)[C@H](N)C1=N[C@H](C(=O)N[C@@H](CC(C)C)C(=O)N[C@H](CCC(=O)O)C(=O)N[C@H](C(=O)N[C@H]2CCCCNC(=O)[C@H](CC(N)=O)NC(=O)[C@@H](CC(=O)O)NC(=O)[C@H](Cc3cnc[nH]3)NC(=O)[C@@H](Cc3ccccc3)NC(=O)[C@H]([C@@H](C)CC)NC(=O)[C@@H](CCCN)NC2=O)[C@@H](C)CC)CS1` [bacitracin] ({Ileψ(thiazoline)Cys}-L[dE]IK[dOrn]I[dF]H[dD]N; lactam 4-C) stands “growth inhibition of the indictator strain S. aureus has been observed”.
